Laboratory results as given in PubChem BioAssay AID248 (DTP/NCI, 2004).
Several values for one entry are separate records, joined by “and”; a condition that tells them apart may be missing. Identical values can stand only once. Toxic doses and inconclusive results are not listed. Rule as the data show it: active = T/C of 150% or more; inactive = T/C below 125%.

Tested on: L1210 leukemia ip in BDF1 mice, survival T/C
Assay: NCI In Vivo Anticancer Drug Screen. Data for tumor model L1210 Leukemia (intraperitoneal) in B6D2F1 (BDF1) mice
Conditions: endpoint: mean survival time, higher = longer survival
Outline: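 Each compound was tested against a transplantable tumor grown in mice. The endpoint was survival, with treated animals benchmarked against vehicle controls as a simple ratio.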

[1] = dose: 50.0 mg/kg/injection, schedule: Q01DX009 (ip), vehicle: saline
[2] = dose: 100.0 mg/kg/injection, schedule: Q01DX009 (ip), vehicle: saline
[3] = dose: 200.0 mg/kg/injection, schedule: Q01DX009 (ip), vehicle: saline
[4] = dose: 100.0 mg/kg/injection, schedule: Q01DX001 (ip), vehicle: saline
[5] = dose: 100.0 mg/kg/injection, schedule: Q04DX003 (ip), vehicle: saline
[6] = dose: 200.0 mg/kg/injection, schedule: Q01DX001 (ip), vehicle: saline
[7] = dose: 200.0 mg/kg/injection, schedule: Q04DX003 (ip), vehicle: saline
[8] = dose: 400.0 mg/kg/injection, schedule: Q04DX003 (ip), vehicle: saline
[9] = dose: 100.0 mg/kg/injection, schedule: Q01DX009 (ip), vehicle: Klucel (hydroxypropylcellulose) (HPC)
[10] = dose: 100.0 mg/kg/injection, schedule: Q04DX003 (ip), vehicle: Klucel (hydroxypropylcellulose) (HPC)
[11] = dose: 200.0 mg/kg/injection, schedule: Q01DX009 (ip), vehicle: Klucel (hydroxypropylcellulose) (HPC)
[12] = dose: 200.0 mg/kg/injection, schedule: Q04DX003 (ip), vehicle: Klucel (hydroxypropylcellulose) (HPC)
[13] = dose: 400.0 mg/kg/injection, schedule: Q04DX003 (ip), vehicle: Klucel (hydroxypropylcellulose) (HPC)
[14] = dose: 400.0 mg/kg/injection, schedule: Q01DX001 (ip), vehicle: saline

Measured: T/C

Cc1c(Cl)cccc1NC(=O)OC/C=C/c1ccccc1
inactive: dose: 100.0 mg/kg/injection, schedule: Q01DX001 (ip), vehicle: saline with Tween-80 93 % of control | dose: 100.0 mg/kg/injection, schedule: Q01DX009 (ip), vehicle: saline with Tween-80 101 % of control and 105 % of control | dose: 100.0 mg/kg/injection, schedule: Q04DX002 (ip), vehicle: saline with Tween-80 101 % of control and 114 % of control | dose: 100.0 mg/kg/injection, schedule: Q04DX003 (ip), vehicle: saline with Tween-80 91 % of control | dose: 200.0 mg/kg/injection, schedule: Q01DX001 (ip), vehicle: saline with Tween-80 93 % of control | dose: 200.0 mg/kg/injection, schedule: Q01DX009 (ip), vehicle: saline with Tween-80 94 % of control and 101 % of control | dose: 200.0 mg/kg/injection, schedule: Q04DX002 (ip), vehicle: saline with Tween-80 96 % of control and 106 % of control | dose: 200.0 mg/kg/injection, schedule: Q04DX003 (ip), vehicle: saline with Tween-80 93 % of control | dose: 400.0 mg/kg/injection, schedule: Q01DX001 (ip), vehicle: saline with Tween-80 88 % of control | dose: 400.0 mg/kg/injection, schedule: Q01DX009 (ip), vehicle: saline with Tween-80 94 % of control and 101 % of control | dose: 400.0 mg/kg/injection, schedule: Q04DX002 (ip), vehicle: saline with Tween-80 93 % of control and 97 % of control | dose: 400.0 mg/kg/injection, schedule: Q04DX003 (ip), vehicle: saline with Tween-80 98 % of control

Cc1cc2nc(CN)[nH]c2cc1C
inactive: [1] 98 % of control | [2] 98 % of control | [3] 93 % of control

COC1/C=C\OC2(C)Oc3c(C)c(O)c4c(O)c(c(/C=N\OCCCc5ccccc5)c(O)c4c3C2=O)NC(=O)/C(C)=C\C=C/C(C)C(O)C(C)C(O)C(C)C(OC(C)=O)C1C (configuration not stated)
inactive: dose: 25.0 mg/kg/injection, schedule: Q04DX003 (ip), vehicle: water 96 % of control | dose: 50.0 mg/kg/injection, schedule: Q04DX003 (ip), vehicle: water 104 % of control | dose: 100.0 mg/kg/injection, schedule: Q04DX003 (ip), vehicle: water 100 % of control | dose: 200.0 mg/kg/injection, schedule: Q04DX003 (ip), vehicle: water 100 % of control

O=S(=O)([O-])O.O=S(O)S(=O)O.[Co+3].[NH2-].[NH2-].[NH2-].[NH2-].[NH2-]
inactive: dose: 25.0 mg/kg/injection, schedule: Q04DX002 (ip), vehicle: saline 91 % of control | dose: 50.0 mg/kg/injection, schedule: Q04DX002 (ip), vehicle: saline 97 % of control

CCn1c[n+](-c2ccccc2)cn1
inactive: [4] 106 % of control

C/C1=C/CCCCCC1
inactive: [4] 90 % of control | [2] 96 % of control | [5] 96 % of control | [6] 101 % of control | [3] 89 % of control | [7] 101 % of control | dose: 400.0 mg/kg/injection, schedule: Q01DX009 (ip), vehicle: saline 94 % of control | [8] 98 % of control

CCCNS(=O)(=O)c1ccc(C(N)=S)cc1
inactive: dose: 100.0 mg/kg/injection, schedule: Q01DX001 (ip), vehicle: Klucel (hydroxypropylcellulose) (HPC) 103 % of control | dose: 200.0 mg/kg/injection, schedule: Q01DX001 (ip), vehicle: Klucel (hydroxypropylcellulose) (HPC) 108 % of control | dose: 400.0 mg/kg/injection, schedule: Q01DX001 (ip), vehicle: Klucel (hydroxypropylcellulose) (HPC) 98 % of control

O=NN(CCCl)C(=O)Nc1ccc(S(=O)(=O)F)cc1
inactive: dose: 500.0 mg/kg/injection, schedule: Q01DX001 (ip), vehicle: carboxymethylcellulose (CMC) 110 % of control

Nc1cc(Cl)cc2c1-c1c(Cl)cc(Cl)cc1C2O (configuration not stated)
inactive: [9] 102 % of control | [10] 102 % of control | [11] 100 % of control | [12] 105 % of control | [13] 97 % of control

CC(CN)N(C)C (configuration not stated)
inactive: [1] 89 % of control | [2] 95 % of control | [5] 93 % of control | [3] 89 % of control | [7] 97 % of control

CCOC(=O)c1oc2c(C(C)=O)c(O)ccc2c1C
inactive: dose: 100.0 mg/kg/injection, schedule: Q04DX002 (ip), vehicle: Klucel (hydroxypropylcellulose) (HPC) 101 % of control and 103 % of control and 92 % of control | dose: 200.0 mg/kg/injection, schedule: Q04DX002 (ip), vehicle: Klucel (hydroxypropylcellulose) (HPC) 101 % of control and 103 % of control and 92 % of control | dose: 400.0 mg/kg/injection, schedule: Q04DX002 (ip), vehicle: Klucel (hydroxypropylcellulose) (HPC) 108 % of control | dose: 800.0 mg/kg/injection, schedule: Q04DX002 (ip), vehicle: Klucel (hydroxypropylcellulose) (HPC) 93 % of control and 95 % of control

CN(CC#N)CC#N
inactive: dose: 25.0 mg/kg/injection, schedule: Q01DX009 (ip), vehicle: saline 105 % of control | [1] 95 % of control

COc1ccc(CN2CCCN(Cc3ccc(OC)cc3OC)C2c2cccc(F)c2)c(OC)c1
inactive: dose: 50.0 mg/kg/injection, schedule: Q01DX001 (ip), vehicle: saline 89 % of control | [4] 89 % of control | [6] 100 % of control | [14] 91 % of control

O=S(=O)(Nc1ccc(F)cc1)c1ccccc1
inactive: [9] 96 % of control | [10] 103 % of control | [11] 102 % of control | [12] 95 % of control | dose: 400.0 mg/kg/injection, schedule: Q01DX009 (ip), vehicle: Klucel (hydroxypropylcellulose) (HPC) 105 % of control | [13] 93 % of control

C=C(C1CC1)C1(CC)C(=O)NC(=S)NC1=O
inactive: dose: 75.0 mg/kg/injection, schedule: Q01DX001 (ip), vehicle: other 102 % of control | dose: 150.0 mg/kg/injection, schedule: Q01DX001 (ip), vehicle: other 113 % of control | dose: 300.0 mg/kg/injection, schedule: Q01DX001 (ip), vehicle: other 94 % of control

Oc1ccccc1C=NCCN=Cc1ccccc1O.[CH3][Sn]([CH3])([Cl])[Cl]
inactive: dose: 12.5 mg/kg/injection, schedule: Q01DX009 (ip), vehicle: saline with Tween-80 102 % of control | dose: 25.0 mg/kg/injection, schedule: Q01DX009 (ip), vehicle: saline with Tween-80 110 % of control | dose: 50.0 mg/kg/injection, schedule: Q01DX009 (ip), vehicle: saline with Tween-80 107 % of control

O=S(=O)(O)C(O)c1ccc(C(O)S(=O)(=O)O)cc1 (configuration not stated)
inactive: [4] 107 % of control | [5] 92 % of control | [6] 107 % of control | [7] 102 % of control | [14] 105 % of control | [8] 95 % of control
